The target of the experiment is Alkaline phosphatase, germ cell type (Homo sapiens) (UniProt P10696). The experiment is described as follows: PLAP-like enzyme inhibition by analogs, SAR follow-up, selectivity assay for mouse IAP inhibitor project, biochemical, human placental-like ALPPL2 isozyme (AID 493136). The note with it: purified placental-like alkaline phosphatase, phosphatase activity.

The source made the active and inactive calls. The rule behind the calls is not given here.

The IC50 is the concentration that gives 50% inhibition.

Alkaline phosphatase, germ cell type (Homo sapiens), sequence (P10696 whole entry, looked up): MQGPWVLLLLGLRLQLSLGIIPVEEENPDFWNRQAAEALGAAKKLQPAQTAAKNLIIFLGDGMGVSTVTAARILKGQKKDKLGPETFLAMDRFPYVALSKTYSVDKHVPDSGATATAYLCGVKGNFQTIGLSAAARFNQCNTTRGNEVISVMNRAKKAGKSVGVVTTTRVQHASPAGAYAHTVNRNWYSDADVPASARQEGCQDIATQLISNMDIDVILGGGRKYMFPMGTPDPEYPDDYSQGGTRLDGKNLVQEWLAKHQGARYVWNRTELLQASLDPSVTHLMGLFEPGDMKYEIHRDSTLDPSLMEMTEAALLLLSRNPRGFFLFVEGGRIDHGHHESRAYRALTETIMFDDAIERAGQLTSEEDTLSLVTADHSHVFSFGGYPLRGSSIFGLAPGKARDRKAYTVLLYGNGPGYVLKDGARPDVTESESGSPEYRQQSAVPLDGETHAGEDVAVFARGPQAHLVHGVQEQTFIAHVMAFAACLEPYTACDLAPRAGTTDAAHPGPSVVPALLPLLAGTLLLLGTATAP

`FC(F)(F)c1cccc(NC(=S)NCCC(c2ccccc2)c2ccccc2)c1`: the IC50 is > 100 µM (inactive).

On to `CN(C)S(=O)(=O)c1cccc(NC(=S)NCCC(c2ccccc2)c2ccccc2)c1`, for which the IC50 is > 100 µM (inactive).

Regarding `CCn1cc(CN2CCC(C(=O)Nc3cccc(-c4cccc(F)c4)c3)CC2)cn1`, the IC50 was > 100 µM (inactive).

In the case of `O=C(Nc1cccc(-c2cccc(F)c2)c1)C1CCN(Cc2ccc(CO)o2)CC1`, the IC50 is > 100 µM (inactive).

For `Fc1ccccc1NC(=S)NCCC(c1ccccc1)c1ccccc1`, the IC50 is > 100 µM (inactive).

For the compound `S=C(NCCC(c1ccccc1)c1ccccc1)Nc1cccc(Cl)c1`, the IC50 was > 100 µM (inactive).

Consider `COc1cc([N+](=O)[O-])ccc1NC(=S)NCCC(c1ccccc1)c1ccccc1`, for which the IC50 is > 100 µM (inactive).

With `CC1(c2ccccc2)CC(C)(C)N(C(=S)Nc2ccccc2)c2ccccc21` (stereo not drawn), the IC50 was > 100 µM (inactive).

In the case of `CCn1cc(CN2CCC(C(=O)Nc3cccc(-c4cccc(OC)c4)c3)CC2)cn1`, the IC50 was > 100 µM (inactive).

For the compound `Cc1ccc(NC(=O)CCNS(=O)(=O)c2ccc3[nH]c(=O)oc3c2)cc1C`, the IC50 is > 100 µM (inactive).

On to `COc1ccc(NC(=S)NCCC(c2ccccc2)c2ccccc2)cc1`, for which the IC50 was > 100 µM (inactive).

As for `Cc1ccc(CN2CCC(C(=O)Nc3cccc(-c4cccc(F)c4)c3)CC2)o1`, the IC50 is > 100 µM (inactive).

Take `CC(C)n1cc(CN2CCC(C(=O)Nc3cccc(-c4cccc(F)c4)c3)CC2)cn1`: the IC50 is > 100 µM (inactive).

As for `O=C(CN1C(=O)/C(=C/c2ccco2)SC1=S)Nc1ccc(C(=O)O)cc1`, the IC50 is > 100 µM (inactive).

Regarding `O=C(Nc1cccc(-c2cccc(Cl)c2)c1)C1CCN(C2CCC2)CC1`, the IC50 was > 100 µM (inactive).

In the case of `CCc1ccccc1Nc1nc(-c2ccc(O)c(O)c2)cs1`, the IC50 was > 100 µM (inactive).

As for `CCOC(=O)c1ccc(NC(=S)NCCC(c2ccccc2)c2ccccc2)cc1`, the IC50 is > 100 µM (inactive).

Consider `Cc1cc(Cl)ccc1NC(=S)NCCC(c1ccccc1)c1ccccc1`, for which the IC50 was > 100 µM (inactive).

With `Cc1cc(=O)oc2cc(NC(=S)NCCC(c3ccccc3)c3ccccc3)ccc12`, the IC50 was > 100 µM (inactive).

With `S=C(NCCC(c1ccccc1)c1ccccc1)Nc1ccc(Cl)c(Cl)c1`, the IC50 is > 100 µM (inactive).

For the compound `Cc1nn(C)c(Cl)c1CN1CCC(C(=O)Nc2cccc(-c3cccc(F)c3)c2)CC1`, the IC50 was > 100 µM (inactive).

For `COc1ccc(Cl)cc1NC(=S)NCCC(c1ccccc1)c1ccccc1`, the IC50 is > 100 µM (inactive).

Turning to `CCn1c(SCC(=O)c2ccc(O)c(O)c2)nnc1-c1ccccc1OC`, the IC50 was 24.4 µM.

With `O=C(CN1C(=O)/C(=C\c2ccco2)SC1=S)Nc1ccccc1C(=O)O`, the IC50 was > 100 µM (inactive).

With `S=C(NCCC(c1ccccc1)c1ccccc1)Nc1ccc(Nc2ccccc2)cc1`, the IC50 is > 100 µM (inactive).

For `S=C(NCCC(c1ccccc1)c1ccccc1)Nc1ccc(Cl)cc1Cl`, the IC50 was > 100 µM (inactive).

Take `CCn1nc(C)c(CN2CCC(C(=O)Nc3cccc(-c4cccc(Cl)c4)c3)CC2)c1C`: the IC50 is > 100 µM (inactive).

On to `O=C(CN1C(=O)/C(=C/c2ccco2)SC1=S)Nc1cccc(C(=O)O)c1`, for which the IC50 was > 100 µM (inactive).

In the case of `Fc1ccc(NC(=S)NCCC(c2ccccc2)c2ccccc2)cc1Cl`, the IC50 is > 100 µM (inactive).

With `S=C(NCCC(c1ccccc1)c1ccccc1)Nc1ccccc1`, the IC50 is > 100 µM (inactive).

With `COC(=O)c1cc(NC(=S)NCCC(c2ccccc2)c2ccccc2)cc(C(=O)OC)c1`, the IC50 was > 100 µM (inactive).

With `CCn1ncc(CN2CCC(C(=O)Nc3cccc(-c4cccc(F)c4)c3)CC2)c1C`, the IC50 was > 100 µM (inactive).

As to `CCn1cc(CN2CCC(C(=O)Nc3cccc(-c4cccc(Cl)c4)c3)CC2)cn1`, the IC50 was > 100 µM (inactive).

For `Cc1cc(C)cc(NC(=S)NCCC(c2ccccc2)c2ccccc2)c1`, the IC50 was > 100 µM (inactive).

On to `COc1cccc(-c2cccc(NC(=O)C3CCN(Cc4ccc(C)o4)CC3)c2)c1`, for which the IC50 is > 100 µM (inactive).

As for `COc1cccc(-c2cccc(NC(=O)C3CCN(Cc4ccc(CO)o4)CC3)c2)c1`, the IC50 was > 100 µM (inactive).

With `NS(=O)(=O)c1ccc(NC(=S)NCCC(c2ccccc2)c2ccccc2)cc1`, the IC50 was > 100 µM (inactive).

With `Cn1cc(CN2CCC(C(=O)Nc3cccc(-c4cccc(F)c4)c3)CC2)cn1`, the IC50 is > 100 µM (inactive).

As to `COCc1ccc(CN2CCC(C(=O)Nc3cccc(-c4cccc(Cl)c4)c3)CC2)o1`, the IC50 is > 100 µM (inactive).

With `COc1ccc(Cl)cc1Nc1nc(-c2ccc(O)c(O)c2)cs1`, the IC50 was > 100 µM (inactive).

As for `O=[N+]([O-])c1ccc(NC(=S)NCCC(c2ccccc2)c2ccccc2)cc1`, the IC50 is > 100 µM (inactive).

On to `Cc1ccc(C)c(NC(=S)NCCC(c2ccccc2)c2ccccc2)c1`, for which the IC50 is > 100 µM (inactive).

Consider `COc1ccc(C(=O)CSc2n[nH]c(-c3ccccc3)n2)cc1OC`, for which the IC50 was > 100 µM (inactive).

Turning to `O=S(=O)(Nc1ncccn1)c1ccc(NC(=S)NCCC(c2ccccc2)c2ccccc2)cc1`, the IC50 was > 100 µM (inactive).

For the compound `COc1cc(NC(=S)NCCC(c2ccccc2)c2ccccc2)cc(OC)c1`, the IC50 is > 100 µM (inactive).

Consider `CCn1nc(C)c(CN2CCC(C(=O)Nc3cccc(-c4cccc(F)c4)c3)CC2)c1C`, for which the IC50 is > 100 µM (inactive).

For `CN1CCC(=NNC(=O)c2cc(O)c(O)c(O)c2)CC1`, the IC50 was > 100 µM (inactive).

For `Cc1cccc(NC(=S)NCCC(c2ccccc2)c2ccccc2)c1C`, the IC50 is > 100 µM (inactive).

Regarding `Oc1ccc(-c2csc(Nc3cccc4ccccc34)n2)cc1O`, the IC50 is > 100 µM (inactive).

`Cc1cc(NC(=O)CCNS(=O)(=O)c2ccc3[nH]c(=O)oc3c2)ccc1Br`: the IC50 is > 100 µM (inactive).

Consider `C=CCn1cc(CN2CCC(C(=O)Nc3cccc(-c4cccc(F)c4)c3)CC2)c(C)n1`, for which the IC50 was > 100 µM (inactive).

For the compound `Cc1ccc(NC(=S)NCCC(c2ccccc2)c2ccccc2)cc1C`, the IC50 is > 100 µM (inactive).

With `C=CCn1cc(CN2CCC(C(=O)Nc3cccc(-c4cccc(Cl)c4)c3)CC2)c(C)n1`, the IC50 was > 100 µM (inactive).

On to `CC(C)N1CCC(=NNC(=O)c2cc(O)c(O)c(O)c2)CC1`, for which the IC50 was > 100 µM (inactive).

Turning to `Cc1c(CN2CCC(C(=O)Nc3cccc(-c4cccc(Cl)c4)c3)CC2)cnn1C`, the IC50 was > 100 µM (inactive).

`S=C(NCCC(c1ccccc1)c1ccccc1)Nc1ccc(Cl)cc1`: the IC50 was > 100 µM (inactive).

With `O=C(Nc1cccc(-c2cccc(Cl)c2)c1)C1CCN(Cc2ccc(CO)o2)CC1`, the IC50 was > 100 µM (inactive).

With `CCn1cc(CN2CCC(C(=O)Nc3cccc(-c4cccc(OC)c4)c3)CC2)c(C)n1`, the IC50 was > 100 µM (inactive).

Regarding `Cc1c(Cl)cccc1NC(=S)NCCC(c1ccccc1)c1ccccc1`, the IC50 is > 100 µM (inactive).

In the case of `Cc1nn(C(C)C)c(C)c1CN1CCC(C(=O)Nc2cccc(-c3cccc(F)c3)c2)CC1`, the IC50 is > 100 µM (inactive).

For the compound `CC(C)n1cc(CN2CCC(C(=O)Nc3cccc(-c4cccc(Cl)c4)c3)CC2)cn1`, the IC50 is > 100 µM (inactive).

Regarding `Cn1cc(CN2CCC(C(=O)Nc3cccc(-c4cccc(Cl)c4)c3)CC2)cn1`, the IC50 is > 100 µM (inactive).

Take `CCCn1ncc(CN2CCC(C(=O)Nc3cccc(-c4cccc(F)c4)c3)CC2)c1C`: the IC50 was > 100 µM (inactive).

`COc1cccc(NC(=S)NCCC(c2ccccc2)c2ccccc2)c1`: the IC50 is > 100 µM (inactive).

Take `Cc1ccc(NC(=S)NCCC(c2ccccc2)c2ccccc2)cc1`: the IC50 was > 100 µM (inactive).

On to `CC(C)c1ccccc1NC(=S)NCCC(c1ccccc1)c1ccccc1`, for which the IC50 was > 100 µM (inactive).

Consider `CCN1CCN(S(=O)(=O)c2ccc3[nH]c(=O)oc3c2)CC1`, for which the IC50 is > 100 µM (inactive).

With `Cc1c(Cl)cccc1Nc1nc(-c2ccc(O)c(O)c2)cs1`, the IC50 was > 100 µM (inactive).
